Test results from patent US8912360B2, “Methods for preparing ritodrine hydrochloride” (Lundbeck Pharmaceuticals Italy S.p.A., priority 2010, dated 2014).

Assay: Stability / hygroscopicity: water content through Karl Fischer titration after storage
Assay type: physicochemical
Conditions: for hygroscopicity: hydrochloride
Method: The water content was determined through Karl Fischer (KF) titration.
Ritodrine hydrochloride Form I is kept at 40° C. and a relative humidity of 75% for 24 hours. The water content measured through Karl Fischer titration is 0.5% (weight/weight).
Ritodrine hydrochloride Form II is placed in a double polyethylene bag with a desiccant (silica gel) kept in standard conditions for storing active ingredients. After some months the water content of such Ritodrine hydrochloride measured through Karl Fischer titration is 2.2% (weight/weight).

| Structure (SMILES) | water absorption (exposed to a relative humidity of 75%) | hygroscopicity | water content measured through Karl Fischer titration (kept at 40° C. and a relative humidity of 75% for 24 hours) | water content measured through Karl Fischer titration (double polyethylene bag with a desiccant (silica gel), standard conditions for storing active ingredients, after some months) | water absorption (not exposed directly to a humid environment, normal controlled storing conditions) |
| --- | --- | --- | --- | --- | --- |
| C[C@@H](NCCc1ccc(O)cc1)[C@@H](O)c1ccc(O)cc1.Cl (racemic) [Ritodrine hydrochloride Form I, 4-((1RS,2SR)-1-hydroxy-2-{[2-(4-hydroxyphenyl)ethyl]amino}propyl)phenol hydrochloride] | does not absorb water | non-hygroscopic | 0.5 % (weight/weight) |  |  |
| C[C@@H](NCCc1ccc(O)cc1)[C@@H](O)c1ccc(O)cc1.Cl (racemic) [Ritodrine hydrochloride Form II, 4-((1RS,2SR)-1-hydroxy-2-{[2-(4-hydroxyphenyl)ethyl]amino}propyl)phenol hydrochloride] |  | hygroscopic |  | 2.2 % (weight/weight) | absorbs water |
